The subject of data set [1] is marble burying behaviour in mice. Description: Mouse Marble Burying Assay (BUR). The conditions noted are these: Mus musculus, sc. Type of data set: in vivo. The method, then:
This assay was carried out essentially according to the procedure described by Treit et al. (1981) Pharmacol Biochem Behav; 15; 619-626.
The results are presented as BUR ED50 (sc). This is the effective dose causing 50% inhibition of burying compared to control mice.

The test system of data set [2] is hyperpolarisation-activated inward cation current Ih in dorsal root ganglion (DRG) cells. Description: Inhibition of hyperpolarisation-activated cation current (Ih), whole cell voltage clamp on cultured DRG cells. Type of data set: cell-based. To be noted: (-) log concentration at which Ih activation rate constant kact is reduced by 50%; mean; rat DRG cells. On the procedure: A) determining the potency of compounds to inhibit the hyperpolarisation-activated inward cation current Ih in dorsal root ganglion (DRG) cells of the rat; the effect is measured as the decrease in Ih activation rate and is expressed as the half maximal effect concentration (IC50) or the negative logarithm of this IC50 (known as pIC50).
To obtain E15 DRGs, pregnant Wistar rats were sacrificed. Embryos were removed and spinal cords with DRG attached to both sides were dissected out and collected in Hanks balanced salt solution (HBSS; Gibco). DRG were separated from the spinal cord and pooled in HBSS without Ca^2+ and Mg^2+. Dissociation of intact DRG was started by incubation with a 0.25% trypsin solution for 30 min at 37° C. Trypsination was stopped by diluting the enzyme and centrifugation (1 min; 2500 rpm). After aspiration of the supernatant the tissue pellet was triturated with DMEMF10 (DMEM supplemented with 10% fetal bovine serum (Hyclone), 6 g/l glucose and 2 mM I-glutamine) and centrifuged for 10 min at 1700 rpm. Dissociated DRG cells were resuspended in culture medium (DMEMF10 with 50 ng/ml NGF 2.5S (Alomone labs)), counted and plated out in a density of 1-2.105 cells on collagen (50 μg/ml) and/or poly-l-lysine (10-20 μg/ml) coated glass coverslips in 24-well tissue culture plates. Plates were kept in a humidified incubator at 37° C. and 5% CO2 for 72 hrs. Glial cell proliferation was inhibited when necessary by adding cytosine arabinoside (Ara-c) at a concentration of 5.10^−7 M. After 3 days fresh culture medium was administered. Medium was subsequently changed every […].
DRG cells were sampled with the whole cell voltage clamp method. Glass electrodes were pulled from thick-walled borosilicate capillaries with filament (1 mm outer diameter). Pipette resistance was 2-5 MΩ. Series resistance (5-15 MΩ) was compensated for to ensure so that potential errors made in the determination of the actual membrane potential were less then 2 mV. Cell capacitance (10-75 pF) compensation was used to compensate for capacitive currents. The extracellular solution contained (in mM): NaCl 140; KCl 5; CaCl2 2; MgCl2 1; D(+) glucose 5.6;HEPES 5; Sucrose 30; pH=7.4. The pipette solution contained (in mM): K-gluconate 119; NaCl 5; KCl 13; CsCl 2; CaCl2 1; EGTA 10;HEPES 10; pH=7.2. Cells were preincubated for more then 1½ hours with different concentrations (1E-9 to 1E-4 M) of test compound dissolved in extracellular solution at room temperature (20° C.) in normal air. Larger cells that appeared round with a pronounced halo under phase-contrast microscopy were selected because almost all of them expressed Ih. Data were acquired with a Digidata 1200® analogue to digital interface using PCLAMP® software (both from Axon Instruments). For Ih activation the cell was held at −63 mV and stepped to −123mV (potentials after correction for liquid junction potential). Current traces were selected for soundness, averaged and fitted to a first order exponential using PCLAMP® software (fit between 60 and 950 ms to avoid biasing by transient currents). Activation time constants (τ) for Ih under different drug concentrations were derived from this fit. The activation rate constant for Ih is defined as kact=1/τ.
The pIC50 is the (-) log concentration of a compound at which the Ih activation rate constant kact is reduced by 50%. pIC50 for a compound could be estimated adequately by fitting kact to the logarithm of the concentration with a logistic function using PRISM® software (Graphpad Inc.). The function chosen is:
kact=A/(1+10^ (log([compound])+pIC50)); A is kact [compound]=0M.
Averaging all control measurements yields that A=3.52 s^−1 and the maximum kact was forced to this value for all compounds in this study. The Hill slope that normally is estimated in concentration-effect relations appeared to be about 1 and was subsequently fixed to this value. […]

In data set [3] the test system is REM sleep in male Wistar rats. Description: Rat Sleep Analysis: suppression of REM sleep. The format is in vivo. The conditions noted are these: first 3 hours after drug administration. The method, then:
Suppression of REM sleep in male Wistar rats was measured after treatment with compounds according to the invention or reference antidepressants using the methods described by Ruigt et al.(Electroencephalography and clinic Neurophysiology, 1989, 73, pages 52-63 & 64-71)
The values reported in Table 1 are expressed as percentage change over placebo for the amount of REM sleep in the first 3 hours after drug administration.

Where [4] appears, read: Table 2, read-out: BUR sc ED50(mg/kg).
Setting [5] is: effective dose causing 50% inhibition of burying compared to control mice, read-out: BUR ED50 (SC).

Each structure is given as a SMILES string. Read-outs that look alike come from different tables or passages of the source.

`C=CCC(N)c1ccccc1-c1nccs1.O=C(O)/C=C/C(=O)O` (stereo not drawn) [16 (4), 2-(thiazol-2-yl)-α-2-propenyl-benzenemethanamine (E)-butenedioate] gave a melting point of 156 to 161 °C. The ED50 in data set [1] (setting [4]) worked out at 9 mg/kg.

`CC(O)c1ccccc1-c1noc2ccccc12` (stereo not drawn) [Example 27, 2-(1,2-Benzisoxazol-3-yl)-α-methyl-benzenemethanol] had a pIC50-Ih in data set [2] of 5.50.

With `C=CCC(N)c1ccccc1-c1noc2cnccc12.O=C(O)/C=C/C(=O)O` (stereo not drawn) [16 (6), 2-(isoxazolo[5,4-c]pyridin-3-yl)-α-2-propenyl-benzenemethanamine (E)-butenedioate], the melting point was 183 to 189 °C. Besides, the ED50 in data set [1] (setting [4]) turned out to be 3.8 mg/kg.

In the case of `C=CCC(N)c1ccccc1-c1noc2ccncc12.O=C(O)/C=C\C(=O)O` (stereo not drawn) [16 (7), 2-(isoxazolo[4,5-c]pyridin-3-yl)-α-2-propenyl-benzenemethanamine (Z)-butenedioate], the melting point was in the range of 151 to 153 °C. Moreover, the ED50 in data set [1] (setting [4]) turned out to be 7.6 mg/kg.

For `C=CCC(N)c1ccccc1-c1noc2c1CCCC2.O=C(O)/C=C\C(=O)O` (stereo not drawn) [15 (25), 2-(4,5,6,7-tetrahydro-1,2-benzisoxazol-3-yl)-α-2-propenyl-benzenemethanamine (Z)-butenedioate], the melting point lay within 144 to 145 °C. For the same molecule, the ED50 in data set [1] (setting [4]) came to 3.2 mg/kg.

Molecule `CCCCC(N)c1ccccc1-c1noc2ccccc12.Cl` (stereo not drawn) [Example 15, 2-(1,2-Benzisoxazol-3-yl)-α-butyl-benzenemethanamine Hydrochloride] displayed a pIC50-Ih in data set [2] of 5.98.

As for `C=CC[C@@H](N)c1ccccc1-c1noc2cc(Cl)ccc12.Cl` [12(2), (R)-(+)-2-(6-chloro-1,2-benzisoxazol-3-yl)-α-2-propenyl-benzenemethanamine hydrochloride], the melting point lay in the range of 144 to 159 °C. Also, the ED50 in data set [1] (setting [5]) was 3.4 mg/kg.

Molecule `O=C(O)C(=O)O.c1ccc(CNCc2ccccc2-c2noc3ccccc23)cc1` [Example 21(3), 2-(1,2-benzisoxazol-3-yl)-N-benzyl-benzenemethanamine ethanedioate] had a melting point of 165 °C. In addition, the pIC50-Ih in data set [2] turned out to be 5.06.

As to `C=CCC(N)c1ccccc1-c1noc2ccc(F)cc12.Cl` (stereo not drawn) [11(3), 2-(5-fluoro-1,2-benzisoxazol-3-yl)-α-2-propenyl-benzenemethanamine hydrochloride], the melting point was in the range of 209 to 214 °C. In data set [1] (setting [5]), the ED50 amounted to 2.68 mg/kg.

As for `COCCCC/C(=N\OCCN)c1ccc(C(F)(F)F)cc1` [Fl, Fluvoxamine], the results for the “percentage change over placebo for the amount of REM sleep” value (“percentage change over placebo” below) in data set [3] (dose 4.6 mg/kg IP) and in data set [3] (dose 22 mg/kg IP) were 40% and −100%, respectively.

As for `CN(C)CCC=C1c2ccccc2CCc2ccccc21` [Am, Amitriptyline], the results for the “percentage change over placebo” value in data set [3] (dose 4.6 mg/kg IP) and in data set [3] (dose 10 mg/kg IP) were −22% and −100%, respectively.

`C=CCC(N)c1ccccc1-c1ccc(Cl)cc1F.O=C(O)/C=C/C(=O)O` (stereo not drawn) [15 (37), 2-(4-chloro-2-fluorophenyl)-α-2-propenyl-benzenemethanamine (E)-butenedioate] showed a melting point of 213 to 215 °C. Moreover, the ED50 in data set [1] (setting [4]) worked out at 9 mg/kg.

Regarding `C=CC[C@@H](N)c1ccccc1-c1noc2ccccc12.Cl` [Example 12, (R)-2-(1,2-Benzisoxazol-3-yl)-α-2-propenyl-benzenemethanamine Hydrochloride], the melting point came out at 191 °C. The pIC50-Ih in data set [2] is reported as 5.12.

Turning to `O=C(NCCN1CCOCC1)c1ccc(Cl)cc1` [Mo, Moclobemide], the results for the “percentage change over placebo” value in data set [3] (dose 10 mg/kg IP) and in data set [3] (dose 32 mg/kg IP) were −61% and −100%, respectively.

As to `COc1ccc(C(CN(C)C)C2(O)CCCCC2)cc1` (stereo not drawn) [Ve, Venlafaxine], the “percentage change over placebo” value in data set [3] (dose 3.2 mg/kg IP) is given as −77%.

Take `CC(N)c1ccccc1-c1noc2ccccc12.Cl` (stereo not drawn) [Example 39, 2-(1,2-Benzisoxazol-3-yl)-α-methyl-benzenemethanamine Hydrochloride]: the melting point lay within 229 to 236 °C. This molecule also registered a pIC50-Ih in data set [2] of 5.24.

The molecule `Cl.NC(Cc1ccsc1)c1ccccc1-c1noc2ccccc12` (stereo not drawn) [36(2), 2-(1,2-benzisoxazol-3-yl)-α-[(thien-3-yl)-methyl)-benzenemethanamine hydrochloride] showed a melting point of 264 to 267 °C. For the same molecule, the ED50 in data set [1] (setting [5]) is 1.2 mg/kg.

`C=CCC(N)c1ccccc1-c1ccccc1.Cl` (stereo not drawn) [15 (4), 2-phenyl-α-2-propenyl-benzenemethanamine hydrochloride]: the melting point fell in the range of 214 to 218 °C. Also, the ED50 in data set [1] (setting [4]) was 8.6 mg/kg.

For the molecule `Cl.NC(CC1CC1)c1ccccc1-c1noc2ccccc12` (stereo not drawn) [36(6), 2-(1,2-benzisoxazol-3-yl)-α-(cyclopropylmethyl)-benzenemethanamine hydrochloride], the ED50 in data set [1] (setting [5]) stood at 1.5 mg/kg.

As for `C=CCC(N)c1ccccc1-c1cccc(C(F)(F)F)c1.O=C(O)/C=C/C(=O)O` (stereo not drawn) [15 (34), 2-(3-trifluoromethylphenyl)-α-2-propenyl-benzenemethanamine (E)-butenedioate], the melting point is 194 to 196 °C. Further, the ED50 in data set [1] (setting [4]) was determined as 6.9 mg/kg.

`C=CCC(N)c1ccccc1-c1ccc(Cl)s1.O=C(O)/C=C/C(=O)O` (stereo not drawn) [15 (14), 2-(5-chlorothien-2-yl)-α-2-propenyl-benzenemethanamine (E)-butenedioate] gave a melting point of 192 to 199 °C. In addition, the ED50 in data set [1] (setting [4]) amounted to 19 mg/kg.

Regarding `C=CCC(N)c1ccccc1-c1cncc2ccccc12.O=C(O)/C=C/C(=O)O` (stereo not drawn) [16 (2), 2-(isoquinolin-4-yl)-α-2-propenyl-benzenemethanamine (E)-butenedioate], the melting point was 246 to 248 °C. Also, the ED50 in data set [1] (setting [4]) is 9.9 mg/kg.

Turning to `Cl.NC(Cc1ccccc1)c1ccccc1-c1noc2ccccc12` (stereo not drawn) [36(1), 2-(1,2-benzisoxazol-3-yl)-α-benzyl-benzenemethanamine hydrochloride], the melting point was 210 to 246 °C (dec.). In addition, in data set [1] (setting [5]), the ED50 stood at 2.5 mg/kg.

`C=CCC(N)c1ccccc1-c1noc2ccccc12.Cl` (stereo not drawn) [Example 11, 2-(1,2-Benzisoxazol-3-yl)-α-2-propenyl-benzenemethanamine Hydrochloride] gave a melting point of 191 °C. Moreover, the “percentage change over placebo” value in data set [3] (dose 0.32 mg/kg IP) is recorded as −44%. In addition, in data set [3] (dose 1 mg/kg IP), the “percentage change over placebo” value is recorded as −88%. For the same molecule, the ED50 in data set [1] (setting [5]) was 1.04 mg/kg.

`C=CC[C@H](N)c1ccccc1-c1noc2cc(Cl)ccc12.Cl` [Example 19(2), (S)-(−)-2-(6-chloro-1,2-benzisoxazol-3-yl)-α-2-propenyl-benzenemethanamine hydrochloride] gave a melting point of 169 to 178 °C. Also, the pIC50-Ih in data set [2] stood at 6.79.

Broadly, the melting point is the temperature of the solid-liquid transition.
